{"source": "patent US20070003636A1", "about": "“Statins (HMG-COA reductase inhibitors) as a novel type of immunomodulator, immunosuppressor and anti-inflammatory agent” (priority 2003, published 2007)", "key": {"CD40": {"test_system": "CD40", "assay": "IFN-γ induced CD40 expression on vascular endothelial cells (Western blot)", "format": "cell-based, human", "details": "ECs; for CD40 expression with co-treatment by IFN-γ and statin: IFN-γ 500 U/ml, 24 hrs, Western blotting", "text": "Cell isolation and culture. […] Human vascular smooth muscle (SMCs) cells were isolated from human saphenous veins and mammary arteries by explant outgrowth, and cultured in DMEM (BioWhittaker) supplemented with 1% L-glutamine (BioWhittaker), 1% penicillin/streptomycin, and 10% FCS. Both cell types were subcultured following trypsinization (0.5% trypsin (Worthington Biochemicals)/0.2% EDTA (EM Science)) in P100-culture dishes (Becton Dickinson).\nWestern blots analysis. Cells were harvested in ice-cold RIPA solubilization buffer, and total amounts of protein were determined using a bicinchoninic acid quantification assay (Pierce, Rockford, Ill.). Twenty μg of total protein/lane were separated by SDS/PAGE under reducing conditions and blotted to polyvinylidene difluoride membranes (Millipore Corp., Bedford, Mass.) using a semidry blotting apparatus (Bio-Rad, Hercules, Calif.). Blots were blocked overnight in 5% defatted dry milk/PBS/0.1% Tween, and then incubated for 1 hour at room temperature with primary antibody (1:40) (rabbit […] anti-CD40 Santa Cruz, San Diego, Calif.), or mouse monoclonal anti-human […] (1:5000) (Pharmingen) for control of loading. This was followed by a 1 hour incubation with secondary peroxidase-conjugated antibody (1:10,000), (Jackson Immunoresearch, West Grove, Pa.). […] Immunoreactivity was detected using the enhanced chemiluminescence detection method according to the manufacturer's instructions. (Amersham, Dübendorf Switzerland), and subsequent exposure of the membranes to x-ray film. Analysis of quantification of detection was performed using AIDA software."}, "CRP": {"test_system": "CRP", "details": "cited from earlier work"}, "MHC class II": {"test_system": "MHC class II", "details": "ECs, IFN-γ 500 U/ml 48 hrs; compared among Atorvastatin, Lovastatin, Pravastatin", "protocol": "Cell isolation and culture. […] Flow cytometry. […] Data were analyzed using […] software (Becton Dickinson)."}, "CD40 mediated pathways": {"test_system": "CD40 mediated pathways", "assay": "CD40L induced cytokine release (IL-6, IL-8, MCP-1) from ECs, ELISA", "format": "cell-based, human", "details": "added to statin and CD154", "protocol": "Cytokines assay. […] Experiments were performed in the presence of polymyxin B (1 μg/ml). Antibody binding was detected by adding substrate (R&D), and absorbance measured at 450 nm using a Dynatech plate reader. The amount of IL-6, IL-8 and MCP-1 detected was calculated from a standard curve prepared with the recombinant protein. Samples were assayed in duplicates.\nTo investigate the functional consequences of inhibition of CD40 expression by statins on Endothelial Cells activation by CD40L, secreted cytokines were analyzed such as Interleukin-6 (IL-6), interleukin-8 (IL-8), macrophages chemoattractant protein-1 (MCP-1). Addition of an anti-CD40LmAb blocked the induction of all three secreted cytokines in response to CD40 ligation."}}}
{"molecule": "CC(C)c1c(C(=O)Nc2ccccc2)c(-c2ccccc2)c(-c2ccc(F)cc2)n1CC[C@@H](O)C[C@@H](O)CC(=O)O", "note": "[Atorvastatin]", "values": [{"measurement": "effect on IFN-γ induced CD40 in the presence of L-mevalonate", "setting": "CD40", "result": "markedly reduced"}, {"measurement": "IFN-γ induction of CD40, dose dependence", "setting": "CD40; IFN-γ 500 U/ml 24 hrs", "result": "repressed this induction of CD40 in a dose-dependant manner"}, {"measurement": "concentration range over which effect on CD40 was observed", "setting": "CD40; IFN-γ 500 U/ml 24 hrs", "result": "0.08 to 5", "unit": "µM"}, {"measurement": "CD40 expression with co-treatment by IFN-γ and statin", "setting": "CD40", "result": "decreased"}, {"measurement": "CD40 expression, treatment with statin alone", "setting": "CD40; without IFN-γ", "result": "had an effect on CD40 expression"}, {"measurement": "CRP levels", "setting": "CRP; 80 mg/day", "result": "decrease in CRP levels"}, {"measurement": "effect on biological markers of inflammation", "setting": "CRP; in vivo", "result": "dose-dependent"}, {"measurement": "potency as MHC class II repressor", "setting": "MHC class II", "result": "most powerful MHC class II repressor"}]}
{"molecule": "CC[C@H](C)C(=O)O[C@H]1C[C@@H](C)C=C2C=C[C@H](C)[C@H](CC[C@@H]3C[C@@H](O)CC(=O)O3)[C@H]21", "note": "[lovastatin, Lovastatin]", "values": [{"measurement": "CD40 expression with co-treatment by IFN-γ and statin", "setting": "CD40", "result": "decreased"}]}
{"molecule": "L-mevalonate", "values": [{"measurement": "reversal of statin effect on cytokine secretion", "setting": "CD40 mediated pathways", "result": "significantly reverses the process"}]}
